# “Also recorded” adds a separate entry of the source.
# Key:
# [1] = tested on: primary cortical neurons overexpressing G2019S-LRRK2; assay: Neuronal apoptosis in primary cortical neurons expressing G2019S-LRRK2; assay type: cell-based, mouse; conditions: 10 μM peptide, 48 h
# Text: Preparation of primary mouse neuronal cultures, and assessment of neuronal death. Embryonic day 16 (E16) pregnant C57BL mice were used in this study, with primary cortical neurons prepared as described (N. Antoniou et al., A motif within the armadillo repeat of Parkinson's-linked LRRK2 interacts with FADD to hijack the extrinsic death pathway. Sci Rep 8, 3455 (2018)). Briefly, under aseptic conditions, cortices were removed and cut into small pieces before enzymatic digestion (trypsin 0.05% and 100 μg/ml DNAse) and mechanical dissociation. Cells were centrifuged and counted and plated at a density of 150,000/cm^2 in BrainPhys neuronal culture medium (StemCell Technologies) supplemented with SM1 Neuronal Supplement (StemCell Technologies), L-glutamine (0.5 mM) and penicillin/[…]. After 3-4 DIV, neurons were transfected using Lipofectamine 2000 (Thermo Scientific) as per the manufacturer's instructions. Neurons were transfected with Flag-tagged WT or mutant (G2019S) human LRRK2 (as described previously). The following day, the treatment of neurons with fluorescently labeled peptides (at 10 μM final concentration) was initiated. The peptides were replenished in the neuronal medium after 24 hours, and the indicated concentrations. […] For quantification of apoptotic neuronal profiles, the approach described previously was used.
# [2] = biological target: T1, GFP-tagged LRRK2 (Homo sapiens, UniProt Q5S007); assay: Localization of GFP-tagged LRRK2 by confocal microscopy; assay type: cell-based; conditions: HEK293 cells, 10 μM peptide, 12 h
# T1 construct: co-transfecting HEK293 cells with GFP-tagged and strep-tagged full-length LRRK2; expressed in transfected cells; host or cells: HEK293
# T1 sequence (Q5S007 whole entry): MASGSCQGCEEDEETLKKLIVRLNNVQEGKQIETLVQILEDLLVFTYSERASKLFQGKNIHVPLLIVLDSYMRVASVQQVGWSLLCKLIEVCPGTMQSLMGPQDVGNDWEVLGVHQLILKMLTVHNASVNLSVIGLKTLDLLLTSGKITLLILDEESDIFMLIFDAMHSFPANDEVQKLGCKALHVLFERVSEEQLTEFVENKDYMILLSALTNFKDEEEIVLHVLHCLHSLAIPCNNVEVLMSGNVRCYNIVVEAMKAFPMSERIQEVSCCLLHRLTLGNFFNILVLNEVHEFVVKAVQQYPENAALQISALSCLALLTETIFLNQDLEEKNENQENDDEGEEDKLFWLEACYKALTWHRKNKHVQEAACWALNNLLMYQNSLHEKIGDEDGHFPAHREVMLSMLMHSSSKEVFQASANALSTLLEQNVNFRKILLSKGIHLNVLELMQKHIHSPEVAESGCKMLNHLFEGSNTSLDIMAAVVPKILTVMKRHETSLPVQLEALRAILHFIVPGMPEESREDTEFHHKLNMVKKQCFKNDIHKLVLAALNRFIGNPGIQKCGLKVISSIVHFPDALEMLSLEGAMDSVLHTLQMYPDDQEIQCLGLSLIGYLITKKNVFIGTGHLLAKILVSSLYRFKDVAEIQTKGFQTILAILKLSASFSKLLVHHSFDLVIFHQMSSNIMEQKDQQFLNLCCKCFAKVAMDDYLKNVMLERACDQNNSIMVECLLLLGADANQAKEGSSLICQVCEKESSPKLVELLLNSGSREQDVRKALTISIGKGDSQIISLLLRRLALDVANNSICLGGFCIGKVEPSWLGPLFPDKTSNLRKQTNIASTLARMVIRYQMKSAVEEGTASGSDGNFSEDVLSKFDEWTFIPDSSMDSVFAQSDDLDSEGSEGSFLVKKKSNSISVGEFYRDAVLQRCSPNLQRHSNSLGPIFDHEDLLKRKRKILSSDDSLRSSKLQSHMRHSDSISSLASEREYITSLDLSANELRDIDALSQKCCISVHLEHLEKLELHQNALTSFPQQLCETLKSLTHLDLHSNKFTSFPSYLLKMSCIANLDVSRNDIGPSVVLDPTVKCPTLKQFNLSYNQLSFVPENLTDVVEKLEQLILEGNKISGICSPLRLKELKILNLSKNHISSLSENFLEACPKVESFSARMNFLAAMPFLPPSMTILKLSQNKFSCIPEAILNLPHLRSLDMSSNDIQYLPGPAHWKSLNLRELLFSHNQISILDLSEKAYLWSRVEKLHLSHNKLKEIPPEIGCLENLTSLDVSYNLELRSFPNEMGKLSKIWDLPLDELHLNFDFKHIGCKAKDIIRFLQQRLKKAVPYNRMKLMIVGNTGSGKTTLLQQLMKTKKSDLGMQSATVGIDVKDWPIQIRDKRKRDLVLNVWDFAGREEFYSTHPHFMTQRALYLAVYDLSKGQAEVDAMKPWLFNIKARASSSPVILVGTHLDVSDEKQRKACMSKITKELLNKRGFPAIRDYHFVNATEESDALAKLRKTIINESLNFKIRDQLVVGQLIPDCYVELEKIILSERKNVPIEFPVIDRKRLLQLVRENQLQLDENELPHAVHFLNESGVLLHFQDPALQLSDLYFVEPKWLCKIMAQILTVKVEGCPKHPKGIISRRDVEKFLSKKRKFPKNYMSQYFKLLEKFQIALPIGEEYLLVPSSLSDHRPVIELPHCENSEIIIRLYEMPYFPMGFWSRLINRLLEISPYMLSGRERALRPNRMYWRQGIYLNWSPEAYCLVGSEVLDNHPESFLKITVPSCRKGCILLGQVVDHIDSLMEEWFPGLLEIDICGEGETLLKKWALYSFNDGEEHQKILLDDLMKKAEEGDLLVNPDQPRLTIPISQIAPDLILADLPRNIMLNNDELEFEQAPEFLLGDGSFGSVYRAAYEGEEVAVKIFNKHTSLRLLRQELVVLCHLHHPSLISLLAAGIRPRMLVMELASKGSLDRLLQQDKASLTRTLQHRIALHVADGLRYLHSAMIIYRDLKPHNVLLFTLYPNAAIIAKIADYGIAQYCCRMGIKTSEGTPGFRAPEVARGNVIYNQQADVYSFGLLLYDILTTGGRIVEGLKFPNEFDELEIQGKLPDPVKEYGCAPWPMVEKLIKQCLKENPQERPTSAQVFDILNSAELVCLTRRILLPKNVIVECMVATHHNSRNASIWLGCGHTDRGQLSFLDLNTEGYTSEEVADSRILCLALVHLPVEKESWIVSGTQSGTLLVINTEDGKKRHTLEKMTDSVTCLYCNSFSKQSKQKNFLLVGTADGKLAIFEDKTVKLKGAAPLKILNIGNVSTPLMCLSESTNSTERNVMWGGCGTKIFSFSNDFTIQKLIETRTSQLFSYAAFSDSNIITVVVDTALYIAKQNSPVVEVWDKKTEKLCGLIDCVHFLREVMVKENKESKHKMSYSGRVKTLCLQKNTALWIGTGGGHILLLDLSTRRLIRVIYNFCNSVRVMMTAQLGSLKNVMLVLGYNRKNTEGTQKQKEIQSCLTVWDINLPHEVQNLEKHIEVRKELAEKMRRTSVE
# Text: Next, we analyzed the effects of these inhibitor peptides on LRRK2 localization.
# [3] = biological target: T1, GFP-tagged LRRK2; assay: Pulldown of LRRK2 from cell lysate with biotin-labeled peptides; assay type: binding; conditions: 10 μM biotin-labeled peptide, lysate of HEK293 cells overexpressing GFP-tagged LRRK2
# Protocol: Pulldown experiments. Fresh lysate of HEK293 cells overexpressing GFP-tagged LRRK2 was mixed and incubated with biotin-labeled peptide (added to a final concentration of 10 μM) and incubated at 4° C. overnight. The mixture was then applied to Magnetic Strep-beads (MagStrep ‘Type3’ XT Beads (IBA, Gottingen, Germany)) and the immune complex was washed twice (10 mM Tris/HCl pH 7.5, 150 mM NaCl) and subjected to immunoblot analysis. Samples were separated on 6% Tris-Glycine gels, transferred onto a nitrocellulose membrane (GE Lifesciences), and processed for western analysis. Membranes were blocked in 5% dry milk in Tris-buffered saline plus Tween-20 for 1 hour and probed with rat monoclonal anti-LRRK2 (clone 24D8 1:1000, Gloeckner lab(69)) and incubated overnight at 4° C. with gentle shaking. Membranes were then washed three times for 10 min at room temperature in PBS containing 0.1% or 0.05% Tween-20 and then incubated for 1 hour with anti-rat IgG-HRP (sc-2750, Santa Cruz Biotechnology). Membranes were again washed three times for 10 min at room temperature in PBS containing 0.1% or 0.05 Tween-20. The membranes were coated with enhanced chemiluminescent (ECL) reagent (WesternSure PREMIUM, Li-COR biosciences), and proteins were detected using the C-Digit Imaging System (Li-COR Biosciences). […]
# [4] = tested on: LRRK2 (R1441G) kinase activity as Rab10 phosphorylation; assay: Rab10 pT73 phosphorylation immunoblot, HEK293T with LRRK2 R1441G and Rab29; assay type: cell-based; conditions: LRRK2 R1441G + Rab29, 10 μM peptide, 12 h / 15 hours
# Protocol: Rab10 Immunoblotting. HEK293T cells were co-transfected at a confluency of 50-60% with Strep-FLAG tagged LRRK2 R1441G and Rab29 as well as Rab10 (both HA-FLAG tagged) using polyethylenimine (PEI, Polyscience) as previously described(46). […] […], cells were lysed in twice, first in lysis buffer (30 mM Tris-HCL (pH7.4), 150 mM NaCl, 0.5% NP-40, complete protease Inhibitor cocktail and phosphatase inhibitor cocktail II & III (Sigma Aldrich) and again after centrifugation in 1% SDS. Cleared lysates were adjusted to 2 μg/μl with 5× Laemmli Buffer and lysis buffer. Samples were used for denaturating electrophoresis using 10% Bis-Tris gels (NuPAGE) and for western blotting onto PVDF membranes. Membranes were blocked with 5% non-fat dry milk dissolved in TBS-T (30 mM Tris-HCL (pH 7.4), 0.1% Tween 20) and separated horizontally at 140 kDa. Primary antibodies were added TBS-T with 5% BSA (pT73 Rab10) 1:2,000 (ab230261) and pS1292 LRRK2 1:2,000 (ab203181)) or total protein antibodies (Rab10(ERP13424) 1:5,000 (ab181367) or LRRK2 (clone 24D8) 1:5,000 (Gloeckner lab)), respectively. Membranes were incubated with HRP-conjugated secondary antibodies diluted in TBS-T with 5% milk prior to imaging using ECL Plus (Pierce) with exposure to photometric films (Hyperfilms, GE Healthcare). […]
# [5] = tested on: RAW 264.7 cells; assay: ROS production assay (CellROX, zymosan); assay type: cell-based; conditions: 10 μM peptide 9 hours, then Zymosan 50 μg/mL 30 mins
# Protocol: ROS production assay. Flow cytometry was used to measure reactive oxygen species (ROS) through fluorescence emission of the CellROX deep red dye (Life Technologies). RAW264.7 cells (ATCC® SC-6003™) were plated at 120,000/well in a 96-well low-adherence tissue culture plate (Costar).
Substance,neurons undergoing apoptosis [1],LRRK2 localization after peptide treatment [2],LRRK2 pulled down by biotin-labeled peptide (immunoblot) [3],Rab10 phosphorylation (pT73) [4],zymosan induced ROS production [5]
"COR-domain stapled peptide formed from SEQ ID NO. 16 KGEGEXLLKXWK, X = (S)-2-(4′-pentenyl)alanine; PEG3 linker, FAM or biotin label (hydrocarbon staple; PEG3 linker; FAM or biotin; COR domain peptide; (6)..(6) Xaa is (S)-2-(4′-pentenyl)alanine; (10)..(10) Xaa is (S)-2-(4′-pentenyl)alanine) [LCIP1]",sharp decline in neurons undergoing apoptosis,LRRK2 maintained its cytoplasmic distribution; also recorded: did not induce mislocalization of LRRK2,successfully bound to LRRK2; also recorded: both peptides bound LRRK2,reduced Rab10 phosphorylation,no statistically significant consequence
"Roc-domain stapled peptide formed from SEQ ID NO. 6 DEKQRKAC(Nle)SKITKEXLNKX, X = (S)-2-(4′-pentenyl)alanine; PEG3 linker, FAM or biotin label (DEKQRKACXSKITKEXLNKX; hydrocarbon staple; Nle; PEG3 linker; FAM or biotin; ROC domain petide; (9)..(9) Xaa is norleucine; (16)..(16) Xaa is (S)-2-(4′-pentenyl)alanine; (20)..(20) Xaa is (S)-2-(4′-pentenyl)alanine) [LRIP4]","sharp decline in neurons undergoing apoptosis, especially for LRIP4 treated cells",LRRK2 maintained its cytoplasmic distribution; also recorded: did not induce mislocalization of LRRK2,successfully bound to LRRK2; also recorded: pulled down considerably more LRRK2 as compared to LCIP1; also recorded: both peptides bound LRRK2,"reduced Rab10 phosphorylation with LRIP4 inducing a more pronounced effect; also recorded: reduced after treatment with LRIP4 or LCIP1, with LRIP4 having a larger inhibitory effect",significant reduction of zymosan induced ROS production to an extent comparable to MLi-2

# — patent US12565520B2, “Chemically-stabilized allosteric modulators of leucine-rich repeat kinase 2 (LRRK2)” (UNIVERSITY OF GEORGIA RESEARCH FOUNDATION, INC., priority 2020, dated 2026)
